Where a name gives a salt, the structure may show the parent alone. Read-outs that look alike come from different tables or passages of the source.
Target: T1, VEGF-A/VEGFR1 (recombinant VEGF-A binding to immobilized VEGFR1) (Homo sapiens, UniProt P17948)
T1 construct: purchased R&D Systems
Assay: Competitive ELISA for VEGF-A/VEGFR-1 interaction
Format: biochemical
Protocol: The competitive ELISA based assay was performed by coating on 96-well plates a recombinant form of VEGFR-1 (R&D Systems, Minneapolis, MN, USA) at 0.5 µg/mL in PBS, 100 µL/well (the same volume was used for all subsequent steps), 16 h at room temperature. The plate was then blocked for 3 h at RT with 1% bovine serum albumin (BSA). Recombinant form of VEGF-A (R&D Systems) at 5 ng/mL in PBS containing 0.1% BSA, 5 mM EDTA, 0.004% Tween 20 (PBET) and 4% DMSO, was added alone or mixed with peptides at a concentration ranging between 0.04 and 100 µM, and incubated for 1 h at 37 °C followed by 1 h at RT. A biotinylated anti VEGF-A polyclonal antibody (R&D Systems) diluted in PBET at 150 ng/mL, was added to the wells and incubated for 1 h at 37 °C followed by 1 h at RT. […] The reaction was blocked by adding 30 µL/well of 4 N H2SO4 and the absorbance measured at 490 nm on a microplate reader (BenchMark, Biorad, Hercules, CA, USA).

[1] = competitive ELISA, VEGFR-1 coated 0.5 µg/mL, VEGF-A 5 ng/mL, peptides 0.04-100 µM, PBET, 4% DMSO, 1 h 37 °C then 1 h RT, absorbance 490 nm, mean of two independent experiments in triplicate, read-out: IC50 of VEGF-A binding to VEGFR1 (concentration at 50% inhibition)

T1 sequence (P17948 27-687 limits assumed, species assumed): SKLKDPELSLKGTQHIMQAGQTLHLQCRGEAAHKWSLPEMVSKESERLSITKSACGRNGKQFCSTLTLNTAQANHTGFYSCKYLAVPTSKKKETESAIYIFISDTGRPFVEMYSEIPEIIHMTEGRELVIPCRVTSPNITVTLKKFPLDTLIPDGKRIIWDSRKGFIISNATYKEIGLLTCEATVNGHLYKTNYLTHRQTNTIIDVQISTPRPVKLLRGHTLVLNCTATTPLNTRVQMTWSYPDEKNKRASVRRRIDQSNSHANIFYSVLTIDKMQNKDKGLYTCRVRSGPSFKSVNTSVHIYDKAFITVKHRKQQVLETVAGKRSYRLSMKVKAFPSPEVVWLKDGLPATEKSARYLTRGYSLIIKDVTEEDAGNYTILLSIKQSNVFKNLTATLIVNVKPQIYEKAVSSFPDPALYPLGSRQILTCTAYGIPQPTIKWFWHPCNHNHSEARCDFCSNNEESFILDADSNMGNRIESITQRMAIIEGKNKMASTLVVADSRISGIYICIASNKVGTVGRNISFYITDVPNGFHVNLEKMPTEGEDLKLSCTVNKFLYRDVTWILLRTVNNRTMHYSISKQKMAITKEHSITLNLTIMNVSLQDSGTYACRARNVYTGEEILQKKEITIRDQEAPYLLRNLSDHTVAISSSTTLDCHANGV

| IC50 (acetate counter-ion, VEGF-A/VEGFR1, read-out: IC50 of iVR1 after TFA replaced with acetate (rounded, discussion)) | IC50 [1] | Increase in inhibitory activity (reduction of IC50) upon TFA to acetate exchange (iVR1-Ac vs iVR1-TFA, VEGF-A/VEGFR1 competitive ELISA) | SMILES |
| --- | --- | --- | --- |
| < 2000 nM | – | – | N[C@H](CCC(=O)O)C(=O)N[C@@H](CSCc1ccccc1)C(=O)N[C@@H](CC1CCCCC1)C(=O)NCCCC[C@H](NC(=O)[C@H](CC1CCCCC1)NC(=O)[C@H](CSCc1ccccc1)NC(=O)[C@H](N)CCC(=O)O)C(=O)NCCCC[C@H](NC(=O)[C@H](CCCCNC(=O)[C@H](CC1CCCCC1)NC(=O)[C@H](CSCc1ccccc1)NC(=O)[C@H](N)CCC(=O)O)NC(=O)[C@H](CC1CCCCC1)NC(=O)[C@H](CSCc1ccccc1)NC(=O)[C@H](N)CCC(=O)O)C(=O)NCC(=O)O [iVR1, [D-Glu-L-Cys(Bzl)-L-Cha]4-Lys2-Lys-Gly] |
| – | 1940 nM | about five | N[C@H](CCC(=O)O)C(=O)N[C@@H](CSCc1ccccc1)C(=O)N[C@@H](CC1CCCCC1)C(=O)NCCCC[C@H](NC(=O)[C@H](CC1CCCCC1)NC(=O)[C@H](CSCc1ccccc1)NC(=O)[C@H](N)CCC(=O)O)C(=O)NCCCC[C@H](NC(=O)[C@H](CCCCNC(=O)[C@H](CC1CCCCC1)NC(=O)[C@H](CSCc1ccccc1)NC(=O)[C@H](N)CCC(=O)O)NC(=O)[C@H](CC1CCCCC1)NC(=O)[C@H](CSCc1ccccc1)NC(=O)[C@H](N)CCC(=O)O)C(=O)NCC(=O)O [iVR1-Ac, [D-Glu-L-Cys(Bzl)-L-Cha]4-Lys2-Lys-Gly] |
| – | 9350 nM | – | N[C@H](CCC(=O)O)C(=O)N[C@@H](CSCc1ccccc1)C(=O)N[C@@H](CC1CCCCC1)C(=O)NCCCC[C@H](NC(=O)[C@H](CC1CCCCC1)NC(=O)[C@H](CSCc1ccccc1)NC(=O)[C@H](N)CCC(=O)O)C(=O)NCCCC[C@H](NC(=O)[C@H](CCCCNC(=O)[C@H](CC1CCCCC1)NC(=O)[C@H](CSCc1ccccc1)NC(=O)[C@H](N)CCC(=O)O)NC(=O)[C@H](CC1CCCCC1)NC(=O)[C@H](CSCc1ccccc1)NC(=O)[C@H](N)CCC(=O)O)C(=O)NCC(=O)O [iVR1-TFA, [D-Glu-L-Cys(Bzl)-L-Cha]4-Lys2-Lys-Gly] |

Reference: article PMC7014271, “Oral Delivery of a Tetrameric Tripeptide Inhibitor of VEGFR1 Suppresses Pathological Choroid Neovascularization” (International Journal of Molecular Sciences, 2020)
